The source of these data is patent US20220023389A1, “VASODILATORS FOR USE IN THE TREATMENT OF A RETINAL ISCHEMIC DISORDER” (University of Copenhagen, priority 2018, published 2022).

Where no end group is shown, it is not given here.

For assay [1], the target named is calcitonin receptor-like receptor (CLR) in complex with receptor activity-modifying protein 1 (RAMP1) (Homo sapiens, UniProt O60894+Q16602). As to conditions: removal of residues 1-7; cited from earlier work.
For assay [2], the system named is retina (photoreceptors, bipolar cells). Kind of assay: Electroretinography (scotopic A-wave and B-wave amplitude) after ET-1 induced retinal ischemia. In kind it is in vivo, Sprague dawley rat. As to conditions: day 21, ET-1 induced ischemia right eye (5 μL 500 μM), ET-1 alone/vehicle.
Experimental: Rats were anesthetized with 90 mg/kg ketamine & 10 mg/kg xylazine (i.p). Oxybuprocain 0.4% Anesthetic was applied topically to the eyes.
Guided under a stereoscopic microscope to avoid lens and retinal injury, 5 μl intravitreal injection of 500 uM ET-1 (Phoenix Pharmaceuticals, Inc.) was performed using a digital controller and UltraMicroPump III, with NanoFil 10 μl syringe (WPI) connected to intraoucular injector with a 34 g bevelled needle.
Injection was performed through the sclera, inserted approximately 1 mm posterior to the corneal limbus at a 45° angle to avoid contact with the lens capsule and direct the contents, 1.5 mm into the vitreous chamber, in the right eye (FIG. 1). The needle remained in the vitreous cavity for 30 seconds after injection and was then gently withdrawn. […]
Day 0—ET-1 is administered intravitreally alone or in combination with the current invention. Fundus is recorded before and after injection. […]
After overnight dark adaptation for at least 12 hours, the animals were anesthetized with 90 mg/kg ketamine and 10 mg/kg xylazine delivered by a single intraperitoneal injection. […] ERGs were recorded from both eyes simultaneously with a gold wire electrode loops, placed on the corneal apex, with a drop of saline applied to the corneal surface for hydration during the testing procedure. […] The scotopic A-wave amplitude and B-wave amplitude were recorded and evaluated.

calcitonin receptor-like receptor (CLR) in complex with receptor activity-modifying protein 1 (RAMP1), sequence (Q16602 23-461): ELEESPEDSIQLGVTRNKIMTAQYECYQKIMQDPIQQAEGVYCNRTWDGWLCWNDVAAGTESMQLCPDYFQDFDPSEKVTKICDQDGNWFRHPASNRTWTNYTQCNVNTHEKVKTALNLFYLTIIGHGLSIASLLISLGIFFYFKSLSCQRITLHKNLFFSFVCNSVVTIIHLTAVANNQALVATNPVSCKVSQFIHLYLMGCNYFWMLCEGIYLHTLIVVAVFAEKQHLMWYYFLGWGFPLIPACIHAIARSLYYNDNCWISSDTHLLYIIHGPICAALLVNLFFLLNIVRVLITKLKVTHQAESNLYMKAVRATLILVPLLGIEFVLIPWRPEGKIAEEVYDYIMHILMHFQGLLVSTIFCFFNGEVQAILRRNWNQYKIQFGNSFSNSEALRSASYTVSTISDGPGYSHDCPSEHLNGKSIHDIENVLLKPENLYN
calcitonin receptor-like receptor (CLR) in complex with receptor activity-modifying protein 1 (RAMP1), sequence (O60894 27-148): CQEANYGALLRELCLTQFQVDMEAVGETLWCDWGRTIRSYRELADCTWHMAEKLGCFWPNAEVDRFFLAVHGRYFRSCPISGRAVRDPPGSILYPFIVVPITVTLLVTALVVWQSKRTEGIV

CGRP8-37: in assay [1], the “binding potency relative to CGRP (less potent)” value is reported as “approximately 10 fold” and the efficacy result is listed as “lost all efficacy”.

With “Endothelin-1 (CSCSSLMDKECVYFCHLDIIW; ends and bridges not checked; cysteine pairing not given here; UniProt P05305 53-73, looked up) [ET-1, vasoconstrictive peptide injected intravitreally to induce retinal ischemia]”, in assay [2], the “avg. max A-wave amplitude” value worked out at 457±40 μV and the “avg. max B-wave amplitude” value is recorded as 804±188 μV.
